Assay results as given in patent US20250134904A1, “SOLID PHARMACEUTICAL FORMULATIONS OF VARENICLINE” (MEDICHEM, S.A., priority 2021, published 2025).
Counter-ions that a name gives are not always drawn.

Assays:
[1] = based on lifetime exposure; cited from earlier work
[2] = HPLC-MS quantification of N-nitroso-varenicline impurity (II) in tablets, after manufacture and after storage/stress; format: physicochemical; details: starting material before tablet manufacture
Protocol: The N-nitroso-varenicline-impurity (II) level in the solid pharmaceutical formulation of the present invention may be detected by high performance liquid chromatography (HPLC) method disclosed in the present invention.
HPLC Method Used for Analyzing N-Nitroso-Varenicline Impurity (II)
The chromatographic separation was carried out using an Acquity UPLC HSS PFP, 2.1×100 mm, 1.8 μm at 35±2° C.
Mobile phase A: 0.05% (v/v) formic acid solution in water.
Mobile phase A is prepared as follows: Dilute with water, 0.5 mL of formic acid in a 1000 mL volumetric flask.
Mobile phase B: Acetonitrile LC-MS grade.
The chromatograph was programmed as follows: initial 2 min isocratic 90% mobile phase A; 2-11 min linear gradient to 50% mobile phase A; 11-16 min isocratic 50% mobile phase A; 16-18 min linear gradient to 90% mobile phase A; 18-23 min isocratic 90% mobile phase A.
The chromatograph was equipped with equipped with a mass detector. The acquisition was made in Single Ion Monitoring. The ion with m/z 241.0 was monitored at 0.8 points/s. The ionization mode was positive electrospray (ESI+), the source temperature was set at 130° C., desolvation gas flow was at 500 L/h and the capillary voltage was set at 3 kV. The cone voltage was set at 20 V for the ion with m/z 241.0. […]
The quantification (μg/g or ppm) of N-nitroso-varenicline impurity (II) in test specimen was performed as follows: […]

| N-nitroso-varenicline impurity (II) content of the varenicline tartrate used as starting material [2] | Compound | intake considered reasonably safe for humans (FDA) [1] |
| --- | --- | --- |
|  | O=NN1CC2CC(C1)c1cc3nccnc3cc12 [N-nitroso-varenicline impurity (II)] | up to 37 ng/day |
| less than 0.4 ppm | c1cnc2cc3c(cc2n1)C1CNCC3C1 [varenicline tartrate, 7,8,9,10-tetrahydro-6,10-methano-6H-pyrazino[2,3-h][3]benzazepine] |  |
